These results are taken from US20010034342A1, “Substituted urea and isothiourea derivatives as no synthase inhibitors” (priority 1993, published 2001).

Counter-ions that a name gives are not always drawn. Like-named read-outs stand apart in the source and are kept apart here.

What all share (assay type): biochemical
The target of test [1] is T1, Human brain NOS (Homo sapiens, UniProt P29475).
T1 construct: Purification of NOS from human brain; from tissue; host or cells: frozen human brain
Kind of test: Human brain NOS enzyme activity assay. As to conditions: for Ki: isolated enzyme from human brain.
Description: The mixture was centrifuged at 13,000 g for 1 hour and the supernatant was removed (about 2050 ml). […] The precipitate was pelleted at 13,000 g for 30 minutes and the pellet was resuspended in −400 mls of buffer A with 4 μM tetrahydrobiopterin, 1 μm FAD (Sigma), 1 μM FMN (Sigma). The solution was centrifuged at 41,000 g for 60 minutes. The supernatant was removed, frozen by pouring into liquid nitrogen, and stored overnight at −70° C. The mixture was thawed and passed through a 2′,5′ ADP-agarose column (0.4 g swelled in buffer A) at 4 ml/min. The column was washed with 100 ml buffer A, 200 ml buffer A with 500 mM NaCl, 100 ml Buffer A, then 30 ml buffer A with 5 mM NADPH. […] To the enzyme was added tetrahydrobiopterin to 10 μM, FAD and FMN to 1 μM, and tween to 0.1%. This solution was concentrated by centriprep-30 to a volume of approximately 500 μl. Human NOS was prepared completely analogously except the calmodulin-agarose column was not used.

Test [2] concerns the target T2, human placental NOS (Homo sapiens, UniProt P29474).
T2 construct: Purification of NOS from human placenta; from tissue; host or cells: fresh human placenta
Kind of test: Assay for human placental NOS (citrulline formation). The conditions noted are these: for inhibition at 25 µM: @ 25 μM inhibitor, read-out: Human Placental, percent (inhibition) @ 25 μM.
Description: (§1) NOS was assayed for the formation of citrulline following the procedure of Schmidt et al (PNAS 88 365-369, 1991) with these modifications: 20 mM Hepes, pH 7.4, 10 μg/ml calmodulin, 2.5 mM CaCl2 2.5 mM DTT, 125 μM NADPH 10 μM H4 Biopterin, 0.5 mg/ml BSA, and 1 μM L-[14C] arginine (New England Nuclear). Linearity of NOS-catalyzed rate was confirmed prior to kinetic studies that used single tine point determination of rate.

Test [3] addresses T3, inducible human NOS (Homo sapiens, UniProt P35228).
T3 construct: Purification of NOS cytokine-induced human colorectal adenocarcinoma DLD-1 cells; endogenous in cells; host or cells: DLD-1 (ATCC No. CCL 221), induced with IFN-gamma, IL-6, TNF and IL-1beta
The test is described as follows: Assay for inducible human NOS (citrulline formation), enzyme from cytokine-induced DLD-1 cells. As to conditions: for inhibition at 25 µM: @ 25 μM inhibitor, read-out: Human Inducible, percent (inhibition) @ 25 μM.
Description: as §1
DLD-1 (ATCC No. CCL 221) were grown at 37° C., 5% CO2 in RPMI 1640 medium supplemented with L-glutamin, penicillin, streptomycin, and 10% heat-inactivated fetal bovine serum. Cells were grown to confluency and then the following cocktail of cytokines were added: 100 units/ml interferon-gamma, 200 units/ml interleukin-6, 10 ng/ml tumor necrosis factor, and 0.5 ng/mil interleukin-1β. At 10-24 hr post-induction, cells were harvested by scraping and washed with phosphate-buffered saline. Pelleted cells were stored at −70° C. Purification of the induced NOS was performed at 4° C. Crude extract was prepared by three cycles of freeze/thawing cells in TDGB (20 mM tris pH 7.5, 10% glycerol, 1 mM DTT, 2 μM tetrahydrobiopterin). Extract was applied directly onto a column of 2′,5′ ADP sepharse (Pharmacia). Resin was sequentially washed with TDGB, 0.5 M NaCl in TDGB, TDGB. NOS was eluted with 2 mM NADPH in TDGB. BSA was immediately added to give a final concentration of 1 mg/ml. NOS could be quick frozen and stored at −70° C. without loss in activity for at least 2 months.
Assay for inducible human NOS.
The formation of citrulline was assayed as described above except that 10 μM FAD was included and calmodulin and CaCl2 were excluded from the assay mix.

The mark [4] stands for this setting: isolated enzyme from human placenta, read-out: Human Placental Ki/μM.
Setting [5] is: isolated enzyme from DLD-1 cells, read-out: Human Inducible Ki/μM.
Where [6] appears, read: from percent inhibition at three or more concentrations at a single time point, assuming competitive inhibition with respect to arginine, read-out: Human Inducible Ki/μM (footnote b).

T3 sequence (P35228 whole entry): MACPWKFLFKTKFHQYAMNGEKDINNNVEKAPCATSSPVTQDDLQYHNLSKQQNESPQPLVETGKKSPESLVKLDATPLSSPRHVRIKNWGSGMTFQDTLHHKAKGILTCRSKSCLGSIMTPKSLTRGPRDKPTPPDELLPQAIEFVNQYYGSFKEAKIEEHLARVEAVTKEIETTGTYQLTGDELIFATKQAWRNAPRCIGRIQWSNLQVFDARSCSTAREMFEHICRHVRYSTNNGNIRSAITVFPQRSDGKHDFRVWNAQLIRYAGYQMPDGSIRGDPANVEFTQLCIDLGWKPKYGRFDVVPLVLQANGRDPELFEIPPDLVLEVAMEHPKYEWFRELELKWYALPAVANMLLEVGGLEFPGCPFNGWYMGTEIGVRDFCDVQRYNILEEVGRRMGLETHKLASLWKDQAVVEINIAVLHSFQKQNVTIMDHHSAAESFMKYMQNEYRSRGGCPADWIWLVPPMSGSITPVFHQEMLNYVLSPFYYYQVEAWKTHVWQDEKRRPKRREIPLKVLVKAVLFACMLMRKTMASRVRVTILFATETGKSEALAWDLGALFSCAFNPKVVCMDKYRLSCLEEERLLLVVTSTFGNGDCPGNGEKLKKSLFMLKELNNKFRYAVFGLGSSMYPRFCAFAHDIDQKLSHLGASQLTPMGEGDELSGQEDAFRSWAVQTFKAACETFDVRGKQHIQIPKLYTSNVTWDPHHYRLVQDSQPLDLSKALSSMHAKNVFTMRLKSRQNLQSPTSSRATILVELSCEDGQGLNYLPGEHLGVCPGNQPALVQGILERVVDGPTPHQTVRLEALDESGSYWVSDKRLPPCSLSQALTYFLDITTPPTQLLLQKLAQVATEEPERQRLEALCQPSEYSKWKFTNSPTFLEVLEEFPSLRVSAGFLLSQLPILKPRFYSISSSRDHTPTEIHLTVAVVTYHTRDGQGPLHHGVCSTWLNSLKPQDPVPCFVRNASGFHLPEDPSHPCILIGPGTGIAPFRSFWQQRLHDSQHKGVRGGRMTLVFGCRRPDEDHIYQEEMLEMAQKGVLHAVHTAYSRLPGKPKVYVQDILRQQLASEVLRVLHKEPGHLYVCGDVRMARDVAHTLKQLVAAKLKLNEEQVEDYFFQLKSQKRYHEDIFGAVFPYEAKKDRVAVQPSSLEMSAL
T1 sequence (P29475 whole entry): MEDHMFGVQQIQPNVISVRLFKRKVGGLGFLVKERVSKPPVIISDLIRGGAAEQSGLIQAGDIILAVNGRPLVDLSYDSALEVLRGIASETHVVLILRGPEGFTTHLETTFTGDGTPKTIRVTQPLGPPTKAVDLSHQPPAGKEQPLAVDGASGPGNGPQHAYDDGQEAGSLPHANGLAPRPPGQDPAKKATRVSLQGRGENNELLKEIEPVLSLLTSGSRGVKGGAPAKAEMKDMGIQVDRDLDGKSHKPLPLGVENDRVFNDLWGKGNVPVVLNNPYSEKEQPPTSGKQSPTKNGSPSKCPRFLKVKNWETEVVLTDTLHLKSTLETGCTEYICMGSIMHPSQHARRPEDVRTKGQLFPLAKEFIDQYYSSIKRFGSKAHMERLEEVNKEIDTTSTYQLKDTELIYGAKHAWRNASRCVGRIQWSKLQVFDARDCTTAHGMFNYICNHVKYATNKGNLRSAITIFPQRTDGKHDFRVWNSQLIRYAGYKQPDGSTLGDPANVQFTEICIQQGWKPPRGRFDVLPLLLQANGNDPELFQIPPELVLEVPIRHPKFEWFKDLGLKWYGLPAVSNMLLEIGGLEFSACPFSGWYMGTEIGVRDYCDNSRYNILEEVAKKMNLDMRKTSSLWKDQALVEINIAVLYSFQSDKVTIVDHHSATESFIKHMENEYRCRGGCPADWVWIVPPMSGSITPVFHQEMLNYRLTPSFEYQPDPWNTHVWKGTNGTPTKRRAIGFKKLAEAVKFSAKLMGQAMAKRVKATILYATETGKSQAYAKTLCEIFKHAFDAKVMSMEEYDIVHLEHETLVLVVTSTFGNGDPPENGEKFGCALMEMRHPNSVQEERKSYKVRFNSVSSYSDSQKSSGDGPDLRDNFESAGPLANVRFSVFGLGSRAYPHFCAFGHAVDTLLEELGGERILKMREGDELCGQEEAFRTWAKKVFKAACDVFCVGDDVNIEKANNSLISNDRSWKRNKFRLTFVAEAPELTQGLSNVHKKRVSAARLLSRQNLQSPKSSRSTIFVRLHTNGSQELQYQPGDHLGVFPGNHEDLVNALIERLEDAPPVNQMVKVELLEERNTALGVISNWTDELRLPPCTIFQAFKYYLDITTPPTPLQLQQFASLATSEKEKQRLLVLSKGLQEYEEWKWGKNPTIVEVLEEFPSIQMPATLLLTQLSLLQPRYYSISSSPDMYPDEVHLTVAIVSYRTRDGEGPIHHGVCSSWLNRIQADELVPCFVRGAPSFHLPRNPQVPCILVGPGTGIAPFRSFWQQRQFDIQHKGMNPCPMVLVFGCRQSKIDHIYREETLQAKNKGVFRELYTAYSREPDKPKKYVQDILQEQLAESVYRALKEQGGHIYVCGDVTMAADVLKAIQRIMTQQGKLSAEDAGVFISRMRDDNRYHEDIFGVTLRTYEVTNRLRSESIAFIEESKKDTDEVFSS
T2 sequence (P29474 2-1203): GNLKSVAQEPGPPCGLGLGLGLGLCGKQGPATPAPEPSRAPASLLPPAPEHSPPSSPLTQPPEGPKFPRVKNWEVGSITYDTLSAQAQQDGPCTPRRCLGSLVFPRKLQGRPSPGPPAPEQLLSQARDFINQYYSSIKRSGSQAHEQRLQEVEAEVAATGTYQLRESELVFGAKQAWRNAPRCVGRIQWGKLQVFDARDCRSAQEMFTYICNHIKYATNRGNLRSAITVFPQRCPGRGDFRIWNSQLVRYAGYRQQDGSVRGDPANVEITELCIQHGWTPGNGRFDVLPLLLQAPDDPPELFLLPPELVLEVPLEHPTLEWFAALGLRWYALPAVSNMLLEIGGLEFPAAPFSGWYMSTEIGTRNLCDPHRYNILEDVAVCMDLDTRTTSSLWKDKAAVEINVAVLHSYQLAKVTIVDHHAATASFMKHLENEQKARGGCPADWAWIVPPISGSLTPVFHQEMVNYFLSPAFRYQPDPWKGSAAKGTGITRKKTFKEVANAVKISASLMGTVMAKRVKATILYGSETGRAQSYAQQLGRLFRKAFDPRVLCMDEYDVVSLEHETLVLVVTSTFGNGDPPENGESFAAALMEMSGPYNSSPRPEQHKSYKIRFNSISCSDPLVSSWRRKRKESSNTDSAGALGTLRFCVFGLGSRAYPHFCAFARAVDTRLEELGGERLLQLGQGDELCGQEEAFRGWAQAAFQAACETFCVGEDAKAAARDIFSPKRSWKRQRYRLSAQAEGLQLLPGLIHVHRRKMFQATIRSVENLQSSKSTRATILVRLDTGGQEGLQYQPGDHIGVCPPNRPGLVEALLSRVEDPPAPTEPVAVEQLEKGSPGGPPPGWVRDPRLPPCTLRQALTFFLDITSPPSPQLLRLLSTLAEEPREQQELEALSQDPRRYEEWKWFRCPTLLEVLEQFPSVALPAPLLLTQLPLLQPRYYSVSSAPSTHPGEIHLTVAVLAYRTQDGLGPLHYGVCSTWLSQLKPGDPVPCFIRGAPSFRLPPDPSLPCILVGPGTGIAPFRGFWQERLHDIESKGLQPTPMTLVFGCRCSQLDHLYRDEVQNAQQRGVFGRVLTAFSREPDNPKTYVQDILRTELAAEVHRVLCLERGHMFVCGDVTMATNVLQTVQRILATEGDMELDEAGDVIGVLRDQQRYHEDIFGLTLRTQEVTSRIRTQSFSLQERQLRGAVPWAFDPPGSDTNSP

With `CCSC(=N)Nc1ccccc1Br` [Example 1F, S-ethyl-N-(2-bromophenyl)isothiourea], the Ki turned out to be 0.25 ± 0.02 µM in test [1], 2 µM in test [2] (setting [4]) and 4.7 µM in test [3] (setting [5]).
For `CC(C)SC(=N)NCCCC[C@@H](N)C(=O)O` [Example 9L], in that order: 108 µM, 23 µM and 19 µM.
In the case of `CCOC(=N)Nc1ccc(C(F)(F)F)cc1` [Example 3A, O-Ethyl-N-(4-(trifluoromethyl)phenyl)isourea], the Ki in test [1] came out at 1.9 ± 0.1 µM. Further, in test [2], the “Human Placental, percent (inhibition), concentration not given” value is 35%. Moreover, the “Human Inducible, percent (inhibition), concentration not given” value in test [3] amounted to 12%.
As to `N[C@@H](CCCCNC1=NCCS1)C(=O)O` [Example 5A, N^6-(2-thiazolin-2-yl)-L-lysine], the Ki in test [2] (setting [4]) was 21 µM; in test [3] (setting [5]) it was 11 µM.
For `CSC(=N)NCc1cccc(CNC(=N)SC)c1` [Example 6, N, N′-((methylthio)iminomethyl)-m-xylylenediamine], the Ki came to 0.5 µM in test [1], 17 µM in test [2] (setting [4]) and 2.3 µM in test [3] (setting [5]).
On to `CCSC(=N)Nc1ccccc1C(F)(F)F` [Example 2F, S-Ethyl-N-[2-(trifluoromethyl)phenyl]isothiourea], for which the figures for the Ki in test [1], in test [2] (setting [4]) and in test [3] (setting [5]) were 1.4 ± 0.01 µM, 1.8 µM and 22 µM, respectively.
For `CCSC(=N)Nc1ccc(O)cc1` [Example 1I, S-ethyl-N-(4-hydroxyphenyl)isothiourea], in that order: 0.34 µM, 2.7 µM and 2.5 µM.
For `CCSC(=N)Nc1cccc(C(F)(F)F)c1` [Example 2E, S-Ethyl-N-[3-(trifluoromethyl)phenyl]isothiourea], in that order: 1.1 ± 0.01 µM, 28 µM and 3.2 µM.
Consider `CCSC(=N)NCc1cccc(CN)c1` [Example 13A, 1-(3-(Aminomethyl)benzyl)S-ethylisothiourea], for which the Ki in test [1] stood at 0.9 µM; in test [2] (setting [4]), 2.1 µM; in test [3] (setting [5]), 0.15 µM.
For `CCOC(=N)NCc1cccc(CN)c1` [Example 12, 1-(3-(Aminomethyl)benzyl)-O-ethylisourea], in that order: 0.09 µM, 4.1 µM and 1.7 µM.
Turning to `CCSC(=N)Nc1cccc(C(=O)O)c1` [Example 1E, S-ethyl-N-(3-carboxyphenyl)isothiourea], the Ki in test [2] (setting [4]) was 14 µM; in test [3] (setting [5]) it was 44 µM.
`CCSC(=N)Nc1cccc(OC)c1` [Example 1A, S-ethyl-N-(3-methoxyphenyl)isothiourea]: the Ki in test [1] is 0.56 ± 0.02 µM; in test [2] (setting [4]) it was 3.1 µM; in test [3] (setting [5]) it was 3.2 µM.
Take “N^6-((methylpropylthio)iminomethyl-D-lysine [Example 9N]”: the Ki in test [1] worked out at 61 µM; in test [2] (setting [4]), 99 µM.
For `CCSC(=N)Nc1ccc(C(F)(F)F)cc1` [Example 2, S-ethyl-N-[4-(trifluoromethyl)phenyl]isothiourea hydrochloride], the Ki in test [1] was found to be 0.32 ± 0.02 µM; in test [2] (setting [4]) it was 9.4 µM. The inhibition at 25 µM in test [3] was determined as 36%.
Consider “N^5-(iminomethoxymethyl)-L-ornithine dihydrochloride [10^c(i)]”, for which the Ki in test [2] (from percent inhibition at three or more concentrations at a single time point, assuming competitive inhibition with respect to arginine, read-out: Human Placental Ki/μM (footnote b)) was found to be 0.12 µM; in test [3] (setting [6]) it was 0.22 µM.
As to `CSC(=N)NCc1ccc(CNC(=N)SC)cc1` [Example 7, N,N-((methylthio)iminomethyl)-p-xylylenediamine], the Ki was found to be 3.2 µM in test [1], 22 µM in test [2] (setting [4]) and 45 µM in test [3] (setting [5]).
For `CC(C)SC(=N)NCCCC[C@H](N)C(=O)O` [Example 9D, N^6-(imino(1-methylethylthio)methyl)L-lysine], in that order: 28 µM, 23.2 µM and 22.6 µM.
As to `CCSC(=N)NCc1ccc(CN)cc1` [Example 14A, 1-(4-(Aminomethyl)benzyl)-S-ethylisoiourea], the Ki amounted to 5.5 µM in test [1], 14 µM in test [2] (setting [4]) and 5.3 µM in test [3] (setting [5]).
On to `CC(C)SC(=N)NCCC[C@@H](N)C(=O)O` [Example 9K], for which the values for the Ki in test [1], in test [2] (setting [4]) and in test [3] (setting [5]) were 61 µM, 30 µM and 40 µM, respectively.
Turning to `CC(C)CSC(=N)NCCC[C@@H](N)C(=O)O` [Example 9M, N^5-((2-methylpropylthio)iminethyl)-D-ornithine], the Ki in test [1] was determined as 19.5 µM; in test [3] (setting [5]), 13 µM.
For the compound “N^6-((methylthio)iminomethyl)-D-lysine [Example 9H]”, the Ki worked out at 0.4 µM in test [1], 1.2 µM in test [2] (setting [4]) and 5.3 µM in test [3] (setting [5]).
For `CCSC(=N)Nc1ccccc1C(C)C` [Example 2C, S-Ethyl-N-(2-isopropylphenyl)isothiourea], in that order: 1.13 ± 0.02 µM, 6.5 µM and 10 µM.
For `CCSC(=N)Nc1ccc(N(C)C)cc1` [Example 1G, S-ethyl-N-(4-dimethylaminophenyl)isothiourea], in that order: 1.4 ± 0.01 µM, 9 µM and 29 µM.
For `CCSC(=N)Nc1ccc(OC)cc1` [Example 1J, S-ethyl-N-(4-methoxyphenyl)isothiourea], in that order: 0.29 ± 0.04 µM, 2.7 µM and 4.9 µM.
As for `CC(C)SC(=N)NCCC[C@H](N)C(=O)O` [Example 9C, N^5-(imino(1-methylethylthio)methyl)-L-ornithine], the Ki in test [1] is 0.9 µM; in test [2] (setting [4]), 2.1 µM; in test [3] (setting [5]), 0.15 µM.
With `CCSC(=N)Nc1ccc(C(=O)O)cc1` [Example 1D, S-ethyl-N-(4-carboxyphenyl)isothiourea], the inhibition at 25 µM in test [1] (@ 25 μM inhibitor, read-out: Human Brain, percent (inhibition) @ 25 μM) worked out at 30%; in test [2], 14%. Further, in test [3], the “Human Inducible, percent (inhibition), concentration not given” value is listed as 0%.
With `CCSC(=N)Nc1ccccc1OC` [Example 2H, S-Ethyl-N-(2-methoxyphenyl)isothiourea], the results for the Ki in test [1], in test [2] (setting [4]) and in test [3] (setting [5]) were 0.17 ± 0.02 µM, 1.6 µM and 1.4 µM, respectively.
`CCSC(=N)Nc1ccc(C(C)C)cc1` [Example 2D, S-Ethyl-N-(4-isopropylphenyl)isothiourea]: the Ki in test [1] stood at 0.33 µM; in test [2] (setting [4]), 7.7 µM.
`CCSC(=N)Nc1ccc(C)cc1` [Example 2I, S-Ethyl-N-(4-methylphenyl)isothiourea]: the Ki turned out to be 0.18 ± 0.04 µM in test [1], 1 µM in test [2] (setting [4]) and 1.9 µM in test [3] (setting [5]).
With `CCSC(=N)Nc1ccc(Oc2ccccc2)cc1` [Example 1, S-Ethyl-N-(4-phenoxyphenyl)isothiourea], the figures for the Ki in test [1], in test [2] (setting [4]) and in test [3] (setting [5]) were 0.19 ± 0.01 µM, 4 µM and 3.1 µM, respectively.
For `CCSC(=N)Nc1cccc(Cl)c1` [Example 2B, S-Ethyl-N-(3-chlorophenyl)isothiourea], in that order: 0.45 µM, 1.8 µM and 2.4 µM.
Regarding `CCSC(=N)Nc1cccnc1` [Example 2J, S-Ethyl-N-(3-pyridyl)isothiourea], the Ki amounted to 1 µM in test [1] and 6.9 µM in test [2] (setting [4]). Further, in test [3], the inhibition at 25 µM amounted to 47%.
As for `CCSC(=N)Nc1cc(C(F)(F)F)ccc1Cl` [Example 2L, S-Ethyl-N-(2-chloro-5-(trifluoromethyl)phenyl)isothiourea], in test [1] (concentration not given), the “Human Brain, percent (inhibition), concentration not given” value is reported as 40%. The “Human Placental, percent (inhibition), concentration not given” value in test [2] worked out at 6%. In addition, the “Human Inducible, percent (inhibition), concentration not given” value in test [3] came out at 20%.
With `CCOC(=O)c1ccc(NC(=N)SCC)cc1` [Example 1C, S-ethyl-N-[4-(ethoxycarbonyl)phenyl]isothiourea], the results for the Ki in test [1], in test [2] (setting [4]) and in test [3] (setting [5]) were 1.6 µM, 12 µM and greater than 25 µM, respectively.
On the same counts, the results for `CCSC(=N)Nc1ccncc1` [Example 2M, S-Ethyl-N-(4-pyridyl)isothiourea] are 1 ± 0.2 µM, 6.9 µM and 23 µM.
With `CSC(=N)NCc1ccc(CN)cc1` [Example 14, 1-(4-(Aminomethyl)benzyl)-S-methylisothiourea], the Ki in test [1] worked out at 28 µM; in test [2] (setting [4]), 23.2 µM; in test [3] (setting [5]) it was 22.6 µM.
On the same counts, the results for `CSC(=N)NCc1cccc(CN)c1` [Example 13, 1-(3-(Aminomethyl)benzyl)-S-methylisothiourea] are 3 µM, 3.3 µM and 0.69 µM.
`CCSC(=N)Nc1ccccn1` [Example 1K, S-ethyl-N-(2-pyridyl)isothiourea] gave a Ki in test [1] of 4.8 µM. Moreover, the inhibition at 25 µM in test [2] and in test [3] was 48% throughout.
With `CC(C)CSC(=N)NCCCC[C@H](N)C(=O)O` [Example 9F, N^6-(imino(2-methylpropylthio)methyl)-L-lysine], the Ki in test [1] came to 61 µM; in test [2] (setting [4]) it was 79 µM.
Consider “N^5-(ethoxyiminomethyl)-L-ornithine dihydrochloride [10^c(ii)]”, for which the Ki in test [2] (from steady state inhibited rate / control rate, assuming competitive inhibition with respect to arginine, read-out: Human Placental Ki/μM (footnote a)) was 0.006 µM; in test [3] (setting [6]), 0.1 µM.
As to `N[C@@H](CCCNC1=NCCS1)C(=O)O` [Example 5, N^5-(2-thiazolin-2-yl)-L-ornithine], the results for the Ki in test [2] (setting [4]) and in test [3] (setting [5]) were 5.5 µM and 3.3 µM, respectively.
